Test results published in paper PMC3423084 (Circulation, 2012).
Each block holds one compound with its values, some of them ahead of it.

What was measured:
guinea pigs = experiment: Guinea pig carotid artery FeCl3 injury arterial thrombosis model; format: in vivo; conditions: clopidogrel 1 mg/kg PO 4 h prior alone, 90 min period, n=5
PAR1 = biological target: T1, PAR1 (Cavia porcellus, UniProt A0A286XH07); experiment: Activation of guinea pig platelets; format: cell-based
T1 sequence (A0A286XH07 24-426): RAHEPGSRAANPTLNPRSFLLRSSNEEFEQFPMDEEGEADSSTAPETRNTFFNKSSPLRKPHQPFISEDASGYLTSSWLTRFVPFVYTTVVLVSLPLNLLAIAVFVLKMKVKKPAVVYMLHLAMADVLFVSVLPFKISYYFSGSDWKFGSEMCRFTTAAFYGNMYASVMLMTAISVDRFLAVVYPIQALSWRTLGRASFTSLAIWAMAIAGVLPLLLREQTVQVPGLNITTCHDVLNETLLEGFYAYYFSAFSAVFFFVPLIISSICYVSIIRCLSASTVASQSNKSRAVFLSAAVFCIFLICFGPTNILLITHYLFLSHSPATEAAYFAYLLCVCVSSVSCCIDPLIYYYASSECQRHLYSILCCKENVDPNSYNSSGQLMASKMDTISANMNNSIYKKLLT

[1] = human, ref Kosoglou, 2012 #2596, cited from earlier work

SMILES: COC(=O)[C@H](c1ccccc1Cl)N1CCc2sccc2C1 [clopidogrel]
Protection against arterial occlusion when used alone (guinea pigs): non-significant protection

EC50 (PAR1): 2.5 µM
SMILES: CC(C)C[C@H](NC(=O)[C@H](CC(C)C)NC(=O)[C@H](Cc1ccccc1)NC(=O)[C@@H](N)CO)C(=O)N[C@@H](CCCN=C(N)N)C(=O)N[C@@H](CC(N)=O)C(=O)O [SFLLRN]

SMILES: CCOC(=O)N[C@@H]1CC[C@@H]2[C@@H](C1)C[C@H]1C(=O)O[C@H](C)[C@H]1[C@H]2/C=C/c1ccc(-c2cccc(F)c2)cn1 [vorapaxar]
Pharmacodynamic (PD) half life / duration of inhibition of platelet function ([1]; single loading dose): up to 3 weeks | Plasma half-life [1]: 120 to 264 h
